From patent US20070161697A1, “Hydrazide type compounds and the use thereof in pharmaceutical compositions for the treatment of cardiovascular diseases” (priority 2004, published 2007) come the findings set out here.

Test [1] deals with THP1 cells. Put plainly: Inhibition of binding and accumulation of cyanine 3-marked LDLox as lipid vesicles in differentiated THP1 macrophage cells. The test is classed as cell-based. The settings on record: Homo sapiens, 2.5 μM. The method, then:
The culture medium may be replaced every two days.
In the present example, the accumulation of lipid vesicles within the cell was measured using THP1 cells following fixation with paraformaldehyde in PBS medium using a solution containing a fluorescent marker of the Oil Red O type in order to visualise the vesicles. The image of the cells rich in vesicles was analysed using a microscope ecqluipped with a CCD camera and software necessary for the analysis.
The medium was replaced every 2-3 days.
The differentiated THP-1 were subsequently incubated with LDLox coupled with cyanine-3 (1.5 μg/ml) in the presence or absence of the molecule CGP02-01 (concentrations of between 10^−5M and 3.1.6 10^−10M) for 24 hours at 37° C., 5% CO2. […] Each image was analysed and quantified with the MetaMorph software (Universal Imaging).

In test [2] the test system is THP1 cells. The description is as above. The settings on record: 3 μg/ml oxLDL-cyanine 3, 25 hours, different concentrations, FIG. 7. The test is classed as cell-based.
In test [3] the test system is Wistar rats. In words: Total cholesterol in plasma, rats on dietary regimen rich in fructose. The test is classed as in vivo. The note with it: 50 mg/kg oral, 3 weeks of treatment. As to the method: Secondly, the activity of the compound CGP 02-01 was studied using a reference rat-fructose model. Groups of Wistar rats (n=12) were subjected for 3 weeks to a dietary regimen containing […] of fructose. Under these conditions, the rats develop a metabolic syndrome comprising hyperglycaemia, hyperinsulinaemia, hypercholesterolaemia and hypertriglyceridaemia. Groups of rats subsequently received by forced feeding 50 mg/kg of the compound CGP 02-01 dissolved in a 2% tween solution prepared in methylcellulose. The blood samples for the biochemical analyses were performed after 1, 2 and 3 weeks. Independent groups of rats wee treated under the same conditions with metformin hydrochloride at a dose of 50 mg/kg. The metformin served as a reference in this metabolic syndrome model. The circulating total cholesterol may be measured by enzymatic assay using the commercially available kit. This assay may for example use an enzymatic sequence of the cholesterol-esterase/cholesteroloxydase/chromogenic peroxidase type. In summary, the total esterified cholesterol is transformed into free cholesterol and fatty acid by the action of cholesterol esterase. The non-esterified cholesterol is subsequently measured by the formation of quinoeimine in the presence of cholesterol oxidase and peroxidise. The intensity of the quinoneimine coloration is proportional to the quantity of cholesterol present in the sample.

In test [4] the test system is Wistar rats. Put plainly: Circulating triglycerides, rats on dietary regimen rich in fructose. The class given is in vivo. The settings on record: oral. As to the method: Secondly, the activity of the compound CGP 02-01 was studied using a reference rat-fructose model. Groups of Wistar rats (n=12) were subjected for 3 weeks to a dietary regimen containing […] of fructose. […] Groups of rats subsequently received by forced feeding 50 mg/kg of the compound CGP 02-01 dissolved in a 2% tween solution prepared in methylcellulose. The blood samples for the biochemical analyses were performed after 1, 2 and 3 weeks. Independent groups of rats wee treated under the same conditions with metformin hydrochloride at a dose of 50 mg/kg. The metformin served as a reference in this metabolic syndrome model. Assay of serum triglycerides may be performed enzymatically using the commercially available kit. One may use kits from Biomérieux for example (ref. 61.238). In summary, the triglycerides are treated with a lipase in order to generate fatty acids. In the presence of ATP, the glycerol is transformed by glycerokinase into glycerol 3 phosphate. The glycerol 3 phosphate is subsequently transformed into dihydroxyacetone in generating oxygenated water (H202) which may be detected by formation of quinoneimine in the presence of parachlorophenol, amino-4-antipyrin and peroxidase. The intensity of the quinoneimine coloration is subsequently measured at 505 nm. This coloration is proportional to the quantity of triglycerides present in the sample.

For test [5], the system named is Wistar rats. Put plainly: Insulin in plasma, rats on dietary regimen rich in fructose. The test is classed as in vivo. The note with it: 50 mg/kg oral. The method, then:
Secondly, the activity of the compound CGP 02-01 was studied using a reference rat-fructose model. Groups of Wistar rats (n=12) were subjected for 3 weeks to a dietary regimen containing […] of fructose. […] Groups of rats subsequently received by forced feeding 50 mg/kg of the compound CGP 02-01 dissolved in a 2% tween solution prepared in methylcellulose. The blood samples for the biochemical analyses were performed after 1, 2 and 3 weeks. Independent groups of rats wee treated under the same conditions with metformin hydrochloride at a dose of 50 mg/kg. The metformin served as a reference in this metabolic syndrome model. Assay of insulin in plasma may be performed by radioimmunological assay using commercially available kits comprising specific anti-insulin antibodies of mice or rats. One may for example use the rat/mouse ELISA kits, Linco research (ref. EZRMI-13K).

The mark [6] stands for this setting: THP-1, cells expressing the scavenger CD36, lipoproteins marked with cyanine 3, read-out: Inhibition of accumulation of LDLox in (%).
The mark [7] stands for this setting: THP-1 cells, 24 hours, read-out: Inhibition at 2.5 μM on THP-1 cells (24 hours).

SMILES strings stand for the structures. Counter-ions that a name gives are not always drawn. Like-named read-outs stand apart in the source and are kept apart here.

For the compound `O=C(N/N=C/c1cc(Br)cc(Br)c1O)c1cc2ccccc2s1` [CGP02-18, benzo[b]thiophene-2-carboxylic acid (3,5-dibromo-2-hydroxy-benzylidene)-hydrazide], the inhibition at 2.5 µM in the test with THP1 cells [1] (setting [6]) and with THP1 cells [1] (setting [7]) was 78% each time.

For `CCN(CC)c1ccc(/C=N/NC(=O)c2ccc(OC)c(OC)c2)c(O)c1` [CGP02-17, 3,4-dimethoxybenzoic acid (4-diethylamino-2-hydroxy-benzylidene)-hydrazide], the inhibition at 2.5 µM with THP1 cells [1] (setting [6]) and with THP1 cells [1] (setting [7]) was 88% throughout.

On to `COc1cc(O)c(/C=N/NC(=O)Cc2c[nH]c3ccccc23)c(OC)c1` [CGP02-08, (1H-indol-3-yl) acetic acid (2-hydroxy-4,6-dimethoxybenzylidene)-hydrazide], for which the inhibition at 2.5 µM in the test on THP1 cells [1] (setting [6]) and in the test with THP1 cells [1] (setting [7]) was 58% throughout.

Take `COc1cc(O)c(/C=N/NC(=O)c2ccc(C)s2)c(OC)c1` [CGP02-03, N′-[(1E)-(2-hydroxy-4,6-dimethoxyphenyl)methylene]-5-methylthiophene-2-carbohydrazide]: the inhibition at 2.5 µM in the test with THP1 cells [1] (setting [6]) and in the test on THP1 cells [1] (setting [7]) was 82% in each case. In addition, the “Inhibition of formation of foamy cells” value with THP1 cells [2] is “inhibition of formation of foamy cells”.

On to `Cc1nn(-c2ccccc2)c(C)c1/C=N/NC(=O)c1ccc([N+](=O)[O-])o1` [CGP02-12], for which the inhibition at 2.5 µM with THP1 cells [1] (setting [6]) and with THP1 cells [1] (setting [7]) was 43% throughout.

For `COc1cc(O)c(/C=N/NC(=O)c2ccccc2Oc2ccccc2)c(OC)c1` [CGP02-11, 2-phenoxy-benzoic acid (2-hydroxy-4,6-dimethoxybenzylidene)-hydrazide], the inhibition at 2.5 µM in the test with THP1 cells [1] (setting [6]) and with THP1 cells [1] (setting [7]) was 44% throughout.

Turning to `COc1cc(O)c(/C=N/NC(=O)c2ccco2)c(OC)c1` [CGP02-07, 2-furancarboxylic acid (2-hydroxy-4,6-dimethoxy-benzylidene)-hydrazide], the inhibition at 2.5 µM in the test with THP1 cells [1] (setting [6]) and in the test with THP1 cells [1] (setting [7]) was 63% in each case.

Turning to `COc1cc(O)c(/C=N/NC(=O)c2c(F)cccc2F)c(OC)c1` [CGP02-13, 2,6-difluorobenzoic acid (2-hydroxy-4,6-dimethoxybenzylidene)-hydrazide], the inhibition at 2.5 µM in the test on THP1 cells [1] (setting [6]) and in the test with THP1 cells [1] (setting [7]) was 68% each time.

For `COc1cc(O)c(/C=N/NC(=O)c2ccc(N(C)C)cc2)c(OC)c1` [CGP02-04], the inhibition at 2.5 µM in the test with THP1 cells [1] (setting [6]) and with THP1 cells [1] (setting [7]) was 61% throughout.

`COc1cc(O)c(/C=N/NC(=O)c2ccccc2CCc2ccccc2)c(OC)c1` [CGP02-05, 2-phenethylbenzoic acid (2-hydroxy-4,6-dimethoxy-benzylidene)-hydrazide]: the inhibition at 2.5 µM with THP1 cells [1] (setting [6]) and with THP1 cells [1] (setting [7]) was 77% throughout.

As for `COc1cc(O)c(/C=N/NC(=O)C=Cc2ccco2)c(OC)c1` (stereo in doubt) [CGP02-02, (2Z)-3-(2-furyl)-N′-[(1E)-(2-hydroxy-4,6-dimethoxyphenyl)methylene] acrylohydrazide], the inhibition at 2.5 µM in the test on THP1 cells [1] (setting [6]) and in the test with THP1 cells [1] (setting [7]) was 64% throughout. Further, the “Inhibition of formation of foamy cells” value in the test with THP1 cells [2] was “inhibition of formation of foamy cells”.

As for `CCC(=O)Nc1cccc(C(=O)N/N=C/c2c(O)cc(OC)cc2OC)c1` [CGP02-06], the inhibition at 2.5 µM in the test with THP1 cells [1] (setting [6]) and in the test with THP1 cells [1] (setting [7]) was 71% each time.

Turning to `COc1cc(O)c(/C=N/NC(=O)CC2Sc3ccccc3NC2=O)c(OC)c1` (centres unmarked) [CGP02-10], the inhibition at 2.5 µM with THP1 cells [1] (setting [6]) and with THP1 cells [1] (setting [7]) was 52% each time.

Regarding `COc1cc(O)c(/C=N/NC(=O)c2ccc(C(F)(F)F)cc2)c(OC)c1` [CGP02-16, 4-trifluoromethylbenzoic acid (2-hydroxy-4,6-dimethoxy-benzylidene)-hydrazide], the inhibition at 2.5 µM with THP1 cells [1] (setting [6]) and in the test with THP1 cells [1] (setting [7]) was 77% in each case.

With `CN(C)C(=N)N=C(N)N` [Metformin, metformin hydrochloride, reference compound], the “Reduction in total cholesterol” value in the test on Wistar rats [3] was 16%. Further, the “Plasma total cholesterol level” value in the test with Wistar rats [3] (control 0.79±0.05) amounted to 0.66 ± 0.02 g/L. In the test on Wistar rats [4] (50 mg/kg, 3 weeks, control 1.39±0.13), this compound came in with a Plasma triglyceride level of 1.21 ± 0.08 g/L. In addition, the “Effect on plasma triglyceride level” value with Wistar rats [4] (same conditions) is reported as “does not have any effect”. Also, the “Variation (reduction) of insulin level” value in the test on Wistar rats [5] is given as 16.2%.
